The source of these data is BindingDB's records for doi:10.1021/jm0613469 (Uppsala University, 2007).

Residues, ends and D or L forms follow the SMILES beside them. Bounds are passed on as bounds.

In the assay the target is Type-2 angiotensin II receptor (Sus scrofa). Description: Displacement of [125I]Ang2 from AT2 receptor in pig uterus myometrial membrane. Background: In a radioligand displacement assay an active substance lowers the binding of a labelled ligand.

For `CC[C@@H](C)[C@H](NC(=O)[C@@H]1CCCN1C(=O)c1cccc(Cn2ccnc2)c1)C(=O)O` [(2S,3R)-2-((S)-1-(3-((1H-imidazol-1-yl)methyl)benzoyl)pyrrolidine-2-carboxamido)-3-methylpentanoic acid], the Ki (usually the equilibrium dissociation constant of an inhibitor or competing ligand from its target) is > 10 µM.
With `CC[C@H](C)[C@H](NC(=O)[C@@H]1CCCN1C(=O)[C@@H](N)Cc1cnc[nH]1)C(=O)O` [(2S,3R)-2-((S)-1-((S)-2-amino-3-(1H-imidazol-5-yl)propanoyl)pyrrolidine-2-carboxamido)-3-methylpentanoic acid] (H-His-Pro-Ile-OH), the Ki was > 10 µM.
`CC[C@@H](C)[C@H](NC(=O)c1cccc(Cn2ccnc2)c1)C(=O)O` [(2S,3R)-2-(3-((1H-imidazol-1-yl)methyl)benzamido)-3-methylpentanoic acid] yielded a Ki of 0.0166 µM.
In the case of `O=C(O)[C@H](Cc1ccccc1)NC(=O)[C@@H]1CCCN1C(=O)c1cccc(Cn2ccnc2)c1` [(S)-2-((S)-1-(3-((1H-imidazol-1-yl)methyl)benzoyl)pyrrolidine-2-carboxamido)-3-phenylpropanoic acid] it was > 10 µM.
The same measure for `O=C(O)[C@H](Cc1ccccc1)NC(=O)[C@@H]1CCCN1C(=O)c1cccc(Cc2cnc[nH]2)c1` [(S)-2-((S)-1-(3-((1H-imidazol-5-yl)methyl)benzoyl)pyrrolidine-2-carboxamido)-3-phenylpropanoic acid]: > 10 µM.
In the case of `CC(=O)N[C@@H](Cc1cnc[nH]1)C(=O)N1CCC[C@H]1C(=O)N[C@@H](Cc1ccccc1)C(=O)O` [(S)-2-((S)-1-((S)-2-acetamido-3-(1H-imidazol-5-yl)propanoyl)pyrrolidine-2-carboxamido)-3-phenylpropanoic acid] (Ac-His-Pro-Phe-OH) it was > 10 µM; in that of `CC[C@@H](C)[C@H](NC(=O)[C@@H]1CCCN1C(=O)c1cccc(Cc2cnc[nH]2)c1)C(=O)O` [(2S,3R)-2-((S)-1-(3-((1H-imidazol-5-yl)methyl)benzoyl)pyrrolidine-2-carboxamido)-3-methylpentanoic acid], > 10 µM; in that of `N[C@@H](Cc1cnc[nH]1)C(=O)N1CCC[C@H]1C(=O)N[C@@H](Cc1ccccc1)C(=O)O` [(S)-2-((S)-1-((S)-2-amino-3-(1H-imidazol-5-yl)propanoyl)pyrrolidine-2-carboxamido)-3-phenylpropanoic acid] (H-His-Pro-Phe-OH), > 10 µM.
Take `O=C(N[C@@H](Cc1ccccc1)C(=O)O)c1cccc(Cn2ccnc2)c1` [(S)-2-(3-((1H-imidazol-1-yl)methyl)benzamido)-3-phenylpropanoic acid]: the inhibitory constant (Ki) came to 0.0375 µM.
